Results reported in US10174053B2, “2 substituted cephem compounds” (Glaxo Group Limited, priority 2012, dated 2019).
≈ marks a conversion by molar mass, not a printed value.

Tests used:
Assay in all cases: In vitro antimicrobial activity, MIC by broth microdilution (CLSI)
Format in all cases: cell-based
K. pneumoniae SR01358 = details: Klebsiella pneumoniae, SR01358; KPC-2, ESBL and KPC-type carbapenemase producing strain; 5×10^5 cfu/mL; cation-adjusted Iso-Sensitest broth containing human Apo-transferrin; read-out: Minimum Inhibitory Concentration (MIC) K. pneumoniae SR01358
How it was run: (§1)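 MIC (μg/mL) by CLSI broth microdilution, inoculum 5×10^5 cfu/mL, in cation-adjusted Iso-Sensitest broth containing human apo-transferrin.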

E. Coli JMI1890 = details: Escherichia coli; PER-1, TEM-1, ESBL producing strain; 5×10^5 cfu/mL; cation-adjusted Iso-Sensitest broth containing human Apo-transferrin; read-out: Minimum Inhibitory Concentration (MIC) E. Coli JMI:1890
How it was run: as §1

A. baumannii JMI7 = details: Acinetobacter baumannii, JMI7; PER-1, OXA-23, 51, ESBL and OXA-type carbapenemase producing strain; 5×10^5 cfu/mL; cation-adjusted Iso-Sensitest broth containing human Apo-transferrin; read-out: Minimum Inhibitory Concentration (MIC) A. baumannii JMI:7
How it was run: as §1

A. baumannii JMI2346 = details: Acinetobacter baumannii, JMI2346; OXA-51, TEM, ESBL and OXA-type carbapenemase producing strain; 5×10^5 cfu/mL; cation-adjusted Iso-Sensitest broth containing human Apo-transferrin; read-out: Minimum Inhibitory Concentration (MIC) A. baumannii JMI:2346
How it was run: as §1

Compound `C[C@@H]1S[C@@H]2[C@H](NC(=O)/C(=N\OC(C)(C)C(=O)[O-])c3csc(N)n3)C(=O)N2C(C(=O)[O-])=C1C[N+]1(CCNC(=O)C(=O)c2ccc(O)c(O)c2)CCCC1.[Na+]` [Compound I-109] has an MIC (K. pneumoniae SR01358) of 0.063 µg/mL, an MIC (E. Coli JMI1890) of 0.5 µg/mL and an MIC (A. baumannii JMI7) of 1 µg/mL. It also gave an MIC (A. baumannii JMI2346) of 8 µg/mL.
For `C[C@@H]1S[C@@H]2[C@H](NC(=O)/C(=N\OC(C)(C)C(=O)[O-])c3csc(N)n3)C(=O)N2C(C(=O)[O-])=C1C[N+]12CCC(Cn3ncc4c(Cl)c(O)c(O)cc4c3=O)(CC1)CC2.[Na+]` [Compound I-113], the MIC (K. pneumoniae SR01358) was ≤ 0.031 µg/mL, the MIC (E. Coli JMI1890) was 0.25 µg/mL and the MIC (A. baumannii JMI7) was 0.25 µg/mL. For the same compound, the MIC (A. baumannii JMI2346) was 4 µg/mL.
For `C[C@@H]1S[C@@H]2[C@H](NC(=O)/C(=N\OC(C)(C)C(=O)[O-])c3csc(N)n3)C(=O)N2C(C(=O)[O-])=C1C[N+]12CCC(CNN3C(=O)c4cc(O)c(O)c(Cl)c4C3=O)(CC1)CC2.[Na+]` [Compound I-114], the MIC (K. pneumoniae SR01358) was ≤ 0.031 µg/mL, the MIC (E. Coli JMI1890) was 0.125 µg/mL and the MIC (A. baumannii JMI7) was 0.5 µg/mL. For the same compound, the MIC (A. baumannii JMI2346) was 4 µg/mL.
In the case of `C[C@@H]1S[C@@H]2[C@H](NC(=O)/C(=N\OC(C)(C)C(=O)[O-])c3csc(N)n3)C(=O)N2C(C(=O)[O-])=C1C[N+]12CCC(CN3C(=O)c4cc(O)c(O)cc4C3=O)(CC1)C2.[Na+]` [Compound I-116], the MIC (K. pneumoniae SR01358) is reported as ≤ 0.031 µg/mL, the MIC (E. Coli JMI1890) is reported as ≤ 0.031 µg/mL and the MIC (A. baumannii JMI7) is reported as 0.25 µg/mL. It also gave an MIC (A. baumannii JMI2346) of 1 µg/mL.
For `C[C@@H]1S[C@@H]2[C@H](NC(=O)/C(=N\OC(C)(C)C(=O)[O-])c3csc(N)n3)C(=O)N2C(C(=O)[O-])=C1C[N+]12CCC(CNC(=O)c3cc(O)c(O)c(F)c3)(CC1)C2.[Na+]` [Compound I-117], the MIC (K. pneumoniae SR01358) was 0.25 µg/mL, the MIC (E. Coli JMI1890) was ≤ 0.031 µg/mL and the MIC (A. baumannii JMI7) was 0.5 µg/mL. The MIC (A. baumannii JMI2346) was 1 µg/mL.
With `C[C@@H]1S[C@@H]2[C@H](NC(=O)/C(=N\OC(C)(C)C(=O)[O-])c3csc(N)n3)C(=O)N2C(C(=O)[O-])=C1C[N+]12CCCC(CNC(=O)c3ccc(O)c(O)c3Cl)(CCC1)C2.[Na+]` [Compound I-118] the MIC (K. pneumoniae SR01358) was 0.063 µg/mL, the MIC (E. Coli JMI1890) was ≤ 0.031 µg/mL and the MIC (A. baumannii JMI7) was 0.25 µg/mL. For the same compound, the MIC (A. baumannii JMI2346) was 0.5 µg/mL.
With `C[C@@H]1S[C@@H]2[C@H](NC(=O)/C(=N\OC(C)(C)C(=O)[O-])c3csc(N)n3)C(=O)N2C(C(=O)O)=C1C[N@+]1(C)[C@@H]2CC[C@H]1C[C@@H](NC(=O)c1cn(C3CC3)c3cc(O)c(O)c(Cl)c3c1=O)C2` [Compound I-120] the MIC (K. pneumoniae SR01358) was ≤ 0.031 µg/mL, the MIC (E. Coli JMI1890) was 0.063 µg/mL (≈ 0.07 µM) and the MIC (A. baumannii JMI7) was 0.5 µg/mL (≈ 0.556 µM). The MIC (A. baumannii JMI2346) was 2 µg/mL (≈ 2.22 µM).
For `CCn1cc(C(=O)N[C@H]2C[C@H]3CC[C@@H](C2)[N@+]3(C)CC2=C(C(=O)O)N3C(=O)[C@@H](NC(=O)/C(=N\OC(C)(C)C(=O)[O-])c4csc(N)n4)[C@H]3S[C@H]2C)c(=O)c2c(Cl)c(O)c(O)cc21` [Compound I-121], the MIC (K. pneumoniae SR01358) was ≤ 0.031 µg/mL, the MIC (E. Coli JMI1890) was 0.063 µg/mL (≈ 0.071 µM) and the MIC (A. baumannii JMI7) was 0.5 µg/mL (≈ 0.563 µM). The MIC (A. baumannii JMI2346) was 2 µg/mL (≈ 2.25 µM).
With `C[C@@H]1S[C@@H]2[C@H](NC(=O)/C(=N\OC(C)(C)C(=O)[O-])c3csc(N)n3)C(=O)N2C(C(=O)O)=C1C[N+]12CCC(Cn3[nH]c(=O)c4cc(O)c(O)cc4c3=O)(CC1)CC2` [Compound I-122] the MIC (K. pneumoniae SR01358) was ≤ 0.031 µg/mL, the MIC (E. Coli JMI1890) was 0.25 µg/mL (≈ 0.313 µM) and the MIC (A. baumannii JMI7) was 0.5 µg/mL (≈ 0.626 µM). It also gave an MIC (A. baumannii JMI2346) of 2 µg/mL (≈ 2.5 µM).
`C[C@@H]1S[C@@H]2[C@H](NC(=O)/C(=N\OC(C)(C)C(=O)[O-])c3csc(N)n3)C(=O)N2C(C(=O)O)=C1C[N+]12CCC(CNN3C(=O)c4cc(O)c(O)cc4C3=O)(CC1)CC2` [Compound I-123] was tested, and the MIC (K. pneumoniae SR01358) was ≤ 0.031 µg/mL, the MIC (E. Coli JMI1890) was 0.125 µg/mL (≈ 0.156 µM) and the MIC (A. baumannii JMI7) was 0.5 µg/mL (≈ 0.626 µM). It also gave an MIC (A. baumannii JMI2346) of 4 µg/mL (≈ 5.01 µM).
With `C[C@@H]1S[C@@H]2[C@H](NC(=O)/C(=N\OC(C)(C)C(=O)O)c3csc(N)n3)C(=O)N2C(C(=O)[O-])=C1C[N+]12CCC(Cn3ncc4cc(O)c(O)cc4c3=O)(CC1)CC2` [Compound I-124] the MIC (K. pneumoniae SR01358) was ≤ 0.031 µg/mL, the MIC (E. Coli JMI1890) was 0.125 µg/mL (≈ 0.16 µM) and the MIC (A. baumannii JMI7) was 0.5 µg/mL (≈ 0.639 µM). For the same compound, the MIC (A. baumannii JMI2346) was 2 µg/mL (≈ 2.55 µM).
